Laboratory results from patent publication US20090048301A1 (IMCLONE SYSTEMS INCORPORATED, priority 2003, published 2009).

test system: bovine tubulin; assay: In vitro tubulin polymerization assay (turbidity at 340 nm); assay type: biochemical; conditions: 10 μM compound, 30 minute data point, vs 1% DMSO control
Method: Briefly, tubulin polymerization is a kinetic process that is temperature-dependent and requires GTP and was performed as follows. Soluble tubulin dimers polymerize into microtubules upon warming, and polymerization in vitro correlates with an increase in turbidity (measured at 340 nm). Lyophilized bovine tubulin (HTS Tubulin—97% tubulin, <3% MAPs—Cytoskeleton Inc.) was ressuspended in G-PEM buffer (80 mM PIPES pH 7, 1 mM EGTA, 1 mM MgCl2, 1 mM GTP, 5% glycerol) to a final concentration of 3 mg/ml and kept at 4° C. Compounds in 100× stock solutions in DMSO were dotted to pre-warmed 96-well plates (Corning Costar 3696), the plates were transferred to a 37° C. plate reader (SPECTRAmax Plus, Molecular Devices), cold tubulin was added to the wells, and the plates were shaken for mixing. The absorbance at 340 nm was determined at one minute intervals for 30 minutes. Kinetic curves with 30 points each were collected for each compound, and the dynamic range was between 0 and 0.4 OD units. The percentage inhibition values were calculated using the 30 minute data point and based on control samples (treated with 1% DMSO only). The assay is a modified version of the HTS kit sold by Cytoskeleton (1830 S. Acoma St., Denver, Colo.), adapted to maximize throughput and reduce time, without reduction in dynamic range or sensitivity, while retaining the ability to detect compounds that inhibit or enhance tubulin polymerization.
Tubulin polymerization is a kinetic process that is temperature-dependent and requires GTP. Soluble tubulin dimers polymerize into microtubules upon warming, and polymerization in vitro correlates with an increase in turbidity (measured at 340 nm). Liophilized bovine tubulin (HTS Tubulin—97% tubulin, <3% MAPs—Cytoskeleton Inc.) was ressuspended in G-PEM buffer (80 mM PIPES pH 7, 1 mM EGTA, 1 mM MgCl2, 1 mM GTP, 5% glycerol) to a final concentration of 3 mg/ml and kept at 4° C. Compounds in 100× stock solutions in DMSO were dotted to pre-warmed 96-well plates (Corning Costar 3696), the plates were immediately transferred to a 37° C. plate reader (SPECTRAmax Plus, Molecular Devices), cold tubulin was added to the wells, plates were shaken for mixing, and absorbance at 340 nm was read every minute for 30 minutes. Kinetic curves with 30 points each were collected for each compound, and the dynamic range was between 0 and 0.4 OD units. Percentage inhibition values were calculated using the 30 minute data point, based on control samples (treated with 1% DMSO only). This assay is a modified version of the HTS kit sold by Cytoskeleton, adapted to maximize throughput and reduce time, without reduction in dynamic range or sensitivity, while retaining the ability to detect compounds that inhibit or enhance tubulin polymerization.

How did the “Tubulin Assay: percent inhibition at 10 μM based on 30 minute data” value (“Tubulin Assay: percent inhibition” for short) turn out when COc1cccc(Nc2nnc(-c3cccnc3NCc3ccc4c(c3)OCCO4)[nH]2)c1 [Compound 35, (2,3-Dihydro-benzo[1,4]dioxin-6-ylmethyl)-{3-[5-(3-methoxy-phenylamino)-4H-[1,2,4]triazol-3-yl]-pyridin-2-yl}-amine] was run?
The value was 66%.

How did the “Tubulin Assay: percent inhibition” value turn out when O=C1CCCN1CCCNc1ncccc1-c1nnc(Nc2ccc3c(c2)OCCO3)[nH]1 [Compound 48, 1-(3-{3-[5-(2,3-Dihydro-benzo[1,4]dioxin-6-ylamino)-4H-[1,2,4]thiazol-3-yl]-pyridin-2-ylamino}-propyl)-pyrrolidin-2-one] was run?
Its value is 21%.

For CN(C)c1ccc(-c2nnc(Nc3ccc4c(c3)OCCO4)o2)c(NCc2cccnc2)c1 [Compound 229, (2,3-Dihydro-benzo[1,4]dioxin-6-yl)-(5-{4-dimethylamino-2-[(pyridin-3-ylmethyl)-amino]-phenyl}-[1,3,4]oxadiazol-2-yl)-amine], which “Tubulin Assay: percent inhibition” value is on record?
The value was 32%.

Which “Tubulin Assay: percent inhibition” value does the source give for COc1ccc(Nc2nnc(-c3cccnc3NCc3cccnc3)[nH]2)c(OC)c1 [Compound 27, {3-[5-(2,4-Dimethoxy-phenylamino)-4H-[1,2,4]triazol-3-yl]-pyridin-2-yl}-pyridin-3-ylmethyl-amine] here?
The value was 20%.

For COc1ccc(OC)c(Nc2nnc(-c3cccnc3NCc3cccnc3)[nH]2)c1 [Compound 28, {3-[5-(2,5-Dimethoxy-phenylamino)-4H-[1,2,4]triazol-3-yl]-pyridin-2-yl}-pyridin-3-ylmethyl-amine], which “Tubulin Assay: percent inhibition” value is on record?
Its value is 22%.

For FC(F)(F)Oc1cccc(-c2nnc(-c3ccccc3NCc3ccc4c(c3)OCCO4)[nH]2)c1 [Compound 142, (2,3-Dihydro-benzo[1,4]dioxin-6-ylmethyl)-{2-[5-(3-trifluoromethoxy-phenyl)-4H-[1,2,4]triazol-3-yl]-phenyl}-amine], which “Tubulin Assay: percent inhibition” value is on record?
The value was 20%.

How did the “Tubulin Assay: percent inhibition” value turn out when O=[N+]([O-])c1cc(C(F)(F)F)ccc1-c1nnc(Nc2ccc3c(c2)OCO3)[nH]1 [Compound 124b] was run?
The value was 26%.

How did the “Tubulin Assay: percent inhibition” value turn out when CN1CCN(c2ccc(-c3nnc(Nc4ccc5c(c4)OCCO5)o3)c([N+](=O)[O-])c2)CC1 [Compound 236, (2,3-Dihydro-benzo[1,4]dioxin-6-yl)-{5-[4-(4-methyl-piperazin-1-yl)-2-nitro-phenyl]-[1,3,4]oxadiazol-2-yl}-amine] was run?
The value was 59%.

Which “Tubulin Assay: percent inhibition” value does the source give for O=S(=O)(Nc1ccccc1-c1nnc(Nc2ccc3c(c2)OCO3)o1)c1cccc(OC(F)(F)F)c1 [Compound 239, N-{2-[5-(Benzo[1,3]dioxol-5-ylamino)-[1,3,4]oxadiazol-2-yl]-phenyl}-3-trifluoromethoxy-benzenesulfonamide] here?
The value was 49%.

Which “Tubulin Assay: percent inhibition” value does the source give for c1ccc(-c2nnc(Nc3ccc4c(c3)OCCO4)o2)c(NCc2ccc3ncccc3c2)c1 [Compound 227, (2,3-Dihydro-benzo[1,4]dioxin-6-yl)-(5-{2-[(quinolin-6-ylmethyl)-amino]-phenyl}-[1,3,4]oxadiazol-2-yl)-amine] here?
Its value is 99%.

FC(F)(F)c1cccc(-c2nnc(-c3ccccc3NCc3ccc4c(c3)OCO4)[nH]2)c1 [Compound 152, Benzo[1,3]dioxol-5-ylmethyl-{2-[5-(3-trifluoromethyl-phenyl)-4H-[1,2,4]triazol-3-yl]-phenyl}-amine] was tested. Which “Tubulin Assay: percent inhibition” value did it give?
Its value is 73%.

Which “Tubulin Assay: percent inhibition” value does the source give for COc1cc(CNc2cc(C(F)(F)F)ccc2-c2nnc(Nc3ccc4c(c3)OCO4)[nH]2)cc(OC)c1 [Compound 126, Benzo[1,3]dioxol-5-yl-{5-[2-(3,5-dimethoxy-benzylamino)-4-trifluoromethyl-phenyl]-4H-[1,2,4]triazol-3-yl}-amine] here?
The value was 93%.

How did the “Tubulin Assay: percent inhibition” value turn out when Brc1cnn(-c2ncccc2-c2nnc(Nc3ccc4c(c3)OCCO4)o2)c1 [Compound 211, {5-[2-(4-Bromo-pyrazol-1-yl)-pyridin-3-yl]-[1,3,4]oxadiazol-2-yl}-(2,3-dihydro-benzo[1,4]dioxin-6-yl)-amine] was run?
Its value is 73%.

CS(=O)(=O)c1ccc(-c2nnc(-c3cccnc3NCc3cccc(F)c3)o2)cc1 [Compound 214, (3-Fluoro-benzyl)-{3-[5-(4-methanesulfonyl-phenyl)-[1,3,4]oxadiazol-2-yl]-pyridin-2-yl}-amine] was tested. Which “Tubulin Assay: percent inhibition” value did it give?
Its value is 52%.

With COc1cccc(Nc2nnc(-c3cccnc3NCCCn3ccnc3)[nH]2)c1 [Compound 29, (3-Imidazol-1-yl-propyl)-{3-[5-(3-methoxy-phenylamino)-4H-[1,2,4]triazol-3-yl]-pyridin-2-yl}-amine] as the molecule, how does the “Tubulin Assay: percent inhibition” value read?
Its value is 28%.

With Brc1ccc(-c2nnc(-c3ccccc3NCc3ccc4[nH]cnc4c3)[nH]2)cc1 [Compound 147, (1H-Benzoimidazol-5-ylmethyl)-{2-[5-(4-bromo-phenyl)-4H-[1,2,4]triazol-3-yl]-phenyl}-amine] as the molecule, how does the “Tubulin Assay: percent inhibition” value read?
Its value is 43%.

Which “Tubulin Assay: percent inhibition” value does the source give for CN(C)c1ccc(-c2nnc(Nc3ccc4c(c3)OCCO4)o2)c(NCc2ccc(F)c(F)c2)c1 [Compound 233, {5-[2-(3,4-Difluoro-benzylamino)-4-dimethylamino-phenyl]-[1,3,4]oxadiazol-2-yl}-(2,3-dihydro-benzo[1,4]dioxin-6-yl)-amine] here?
The value was 40%.

How did the “Tubulin Assay: percent inhibition” value turn out when COc1cc(Nc2nnc(-c3ccccc3NCc3ccc(F)c(F)c3)[nH]2)cc(OC)c1 [Compound 120, {5-[2-(3,4-Difluoro-benzylamino)-phenyl]-4H-[1,2,4]triazol-3-yl}-(3,5-dimethoxy-phenyl)-amine] was run?
Its value is 63%.

For Fc1ccc(CNc2ccccc2-c2cnc(Nc3ccc4c(c3)OCCO4)o2)cc1F [Compound 247, {5-[2-(3,4-Difluoro-benzylamino)-phenyl]-oxazol-2-yl}-(2,3-dihydro-benzo[1,4]dioxin-6-yl)-amine], which “Tubulin Assay: percent inhibition” value is on record?
Its value is 94%.

Which “Tubulin Assay: percent inhibition” value does the source give for COc1ccc(Nc2nnc(-c3cccnc3Nc3ccc4cn[nH]c4c3)[nH]2)cc1 [Compound 19, (1H-Indazol-6-yl)-{3-[5-(4-methoxy-phenylamino)-4H-[1,2,4]triazol-3-yl]-pyridin-2-yl}-amine] here?
The value was 20%.

How did the “Tubulin Assay: percent inhibition” value turn out when c1cnc(NCc2ccc3c(c2)OCCO3)c(-c2nnc(-c3ccc4c(c3)OCO4)[nH]2)c1 [Compound 104, [3-(5-Benzo[1,3]dioxol-5-yl-4H-[1,2,4]triazol-3-yl)-pyridin-2-yl]-(2,3-dihydro-benzo[1,4]dioxin-6-ylmethyl)-amine] was run?
The value was 21%.

With COc1ccc(S(=O)(=O)Nc2ccccc2-c2nnc(Nc3ccc4c(c3)OCO4)o2)cc1OC [Compound 238, N-{2-[5-(Benzo[1,3]dioxol-5-ylamino)-[1,3,4]oxadiazol-2-yl]-phenyl}-3,4-dimethoxy-benzenesulfonamide] as the molecule, how does the “Tubulin Assay: percent inhibition” value read?
The value was 65%.

For COc1cc(Nc2ncccc2-c2nc(Nc3ccc4c(c3)OCCO4)n(C)n2)cc(OC)c1 [Compound 67, {3-[5-(2,3-Dihydro-benzo[1,4]dioxin-6-ylamino)-1-methyl-1H-[1,2,4]triazol-3-yl]-pyridin-2-yl}-(3,5-dimethoxy-phenyl)-amine], which “Tubulin Assay: percent inhibition” value is on record?
The value was 76%.

c1cncc(CCNc2ncccc2-c2nnc(Nc3ccc4c(c3)OCCO4)[nH]2)c1 [Compound 41, {3-[5-(2,3-Dihydro-benzo[1,4]dioxin-6-ylamino)-4H-[1,2,4]triazol-3-yl]-pyridin-2-yl}-(2-pyridin-3-yl-ethyl)-amine] was tested. Which “Tubulin Assay: percent inhibition” value did it give?
The value was 23%.

Which “Tubulin Assay: percent inhibition” value does the source give for COc1cccc(CNc2nnc(-c3ccccc3NCc3ccncc3)[nH]2)c1 [Compound 112, (3-Methoxy-benzyl)-(5-{2-[(pyridin-4-ylmethyl)-amino]-phenyl}-4H-[1,2,4]triazol-3-yl)-amine] here?
Its value is 49%.

With COc1cc(CNc2ccccc2-c2nnc(-c3ccc(C(F)(F)F)cc3)[nH]2)cc(OC)c1 [Compound 140, (3,5-Dimethoxy-benzyl)-{2-[5-(4-trifluoromethyl-phenyl)-4H-[1,2,4]triazol-3-yl]-phenyl}-amine] as the molecule, how does the “Tubulin Assay: percent inhibition” value read?
The value was 20%.

For COc1cccc(Nc2nnc(-c3cccnc3NCc3ccc4c(c3)CCO4)[nH]2)c1 [Compound 37, (2,3-Dihydro-benzofuran-5-ylmethyl)-{3-[5-(3-methoxy-phenylamino)-4H-[1,2,4]triazol-3-yl]-pyridin-2-yl}-amine], which “Tubulin Assay: percent inhibition” value is on record?
The value was 91%.
